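Dose response: 5 concentrations. Exposure: 48 h. Format: 96-well plates. Endpoint: linear interpolation; highest concentration if not reached. GI50: concentration for 50% inhibition of growth.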 Calls of active or inactive are those of the source. No stated cut-off is given here; in the data, active = GI50 up to about 1.1 µM and inactive = higher.
Assays:
Assay in all cases: NCI tumour cell line growth inhibition, 48 h
HT-29 = test system: HT-29
UACC-62 = test system: UACC-62
SK-MEL-5 = test system: SK-MEL-5
PC-3 = test system: PC-3
UACC-257 = test system: UACC-257
BT-549 = test system: BT-549
NCI-H226 = test system: NCI-H226
NCI-H23 = test system: NCI-H23
HCT-15 = test system: HCT-15
OVCAR-5 = test system: OVCAR-5
MDA-N = test system: MDA-N
HOP-62 = test system: HOP-62
K562 = test system: K562
COLO 205 = test system: COLO 205
Malme-3M = test system: Malme-3M
Hs-578T = test system: Hs-578T
SN12C = test system: SN12C
OVCAR-8 = test system: OVCAR-8
SK-MEL-2 = test system: SK-MEL-2
CAKI-1 = test system: CAKI-1

Measured: GI50

CC(=O)OC1CC2(C)C(OC(C)=O)CC1C2(C)C (centres undefined)
inactive: HT-29 > 100 µM | UACC-62 > 100 µM | SK-MEL-5 > 100 µM | PC-3 > 100 µM | UACC-257 > 100 µM | BT-549 > 100 µM | NCI-H226 > 100 µM | NCI-H23 > 100 µM | OVCAR-5 > 100 µM | MDA-N > 100 µM | HOP-62 > 100 µM | K562 > 100 µM | COLO 205 > 100 µM | Malme-3M > 100 µM | Hs-578T > 100 µM | SN12C > 100 µM | OVCAR-8 > 100 µM
> 100 µM: HCT-15

CC(C)(C)O/C=C1/C(=O)OC2C[C@@H](O[Si](C)(C)C(C)(C)C)CC12 (some centres undefined)
inactive: HT-29 68.1 µM | SK-MEL-5 60.3 µM | PC-3 45.5 µM | UACC-257 41.5 µM | BT-549 56.5 µM | NCI-H226 92.7 µM | NCI-H23 39.7 µM | OVCAR-5 > 100 µM | MDA-N > 100 µM | SK-MEL-2 > 100 µM | HOP-62 > 100 µM | COLO 205 72.9 µM | Malme-3M 98.9 µM | CAKI-1 > 100 µM | SN12C 34.7 µM | OVCAR-8 48.1 µM
49.3 µM: HCT-15

COc1cccc2c1OC(c1ccc(Cl)cc1)C([N+](=O)[O-])=C2 (centres undefined)
1.81 µM: HCT-15
inactive: HT-29 1.35 µM | UACC-62 1.74 µM | SK-MEL-5 1.53 µM | PC-3 1.66 µM | UACC-257 1.91 µM | BT-549 1.24 µM | NCI-H23 3.77 µM | OVCAR-5 2.79 µM | MDA-N 1.42 µM | HOP-62 2.1 µM | COLO 205 2.19 µM | Malme-3M 1.87 µM | CAKI-1 3.48 µM | Hs-578T 4.2 µM | SN12C 2.35 µM | OVCAR-8 1.93 µM
active: K562 0.411 µM

Nc1ccc2nc3n(c2c1)C(=O)c1ccccc1-3
inactive: HT-29 > 100 µM | UACC-62 > 100 µM | SK-MEL-5 > 100 µM | PC-3 > 100 µM | UACC-257 > 100 µM | BT-549 > 100 µM | NCI-H226 > 100 µM | NCI-H23 > 100 µM | OVCAR-5 > 100 µM | MDA-N > 100 µM | SK-MEL-2 > 100 µM | K562 > 100 µM | COLO 205 > 100 µM | Malme-3M > 100 µM | CAKI-1 > 100 µM | SN12C > 100 µM | OVCAR-8 > 100 µM
> 100 µM: HCT-15

O=C1C(Br)=C(c2ccccc2)O/C1=C/C(=O)c1ccc(Br)cc1
inactive: HT-29 36.1 µM | UACC-62 23.9 µM | SK-MEL-5 52.8 µM | PC-3 14.2 µM | BT-549 5.38 µM | NCI-H226 > 100 µM | NCI-H23 > 100 µM | OVCAR-5 > 100 µM | MDA-N 15.5 µM | HOP-62 > 100 µM | K562 25.6 µM | COLO 205 > 100 µM | Malme-3M 58.2 µM | CAKI-1 19 µM | Hs-578T 50 µM | SN12C 8.75 µM | OVCAR-8 27 µM
89.9 µM: HCT-15

[N-]=[N+]=CC(=O)OC1CCc2ccccc21 (centres undefined)
> 100 µM: HCT-15
inactive: HT-29 > 100 µM | UACC-62 > 100 µM | SK-MEL-5 85.1 µM | PC-3 > 100 µM | UACC-257 > 100 µM | BT-549 > 100 µM | NCI-H226 > 100 µM | NCI-H23 82.8 µM | OVCAR-5 46.5 µM | MDA-N > 100 µM | SK-MEL-2 > 100 µM | HOP-62 55.2 µM | K562 > 100 µM | COLO 205 73.1 µM | Malme-3M > 100 µM | CAKI-1 26 µM | SN12C 42.5 µM

CCOP(=O)(OCC)/C(C#N)=C/c1cccn1CC(C)C
inactive: HT-29 > 100 µM | UACC-62 > 100 µM | SK-MEL-5 40.9 µM | PC-3 93.3 µM | UACC-257 > 100 µM | BT-549 > 100 µM | NCI-H226 35.7 µM | NCI-H23 > 100 µM | OVCAR-5 > 100 µM | MDA-N > 100 µM | SK-MEL-2 > 100 µM | HOP-62 > 100 µM | K562 39.9 µM | COLO 205 > 100 µM | Malme-3M > 100 µM | CAKI-1 > 100 µM | SN12C > 100 µM | OVCAR-8 > 100 µM
> 100 µM: HCT-15

COC(=O)C(CCC1C=CN(S(=O)(=O)c2ccc(C)cc2)C1)/N=C/c1ccccc1 (centres undefined)
inactive: HT-29 30.9 µM | UACC-62 32.8 µM | SK-MEL-5 22.2 µM | PC-3 32.7 µM | UACC-257 50 µM | BT-549 39.6 µM | NCI-H226 32.3 µM | NCI-H23 26.4 µM | OVCAR-5 60.7 µM | MDA-N 38.3 µM | SK-MEL-2 20.1 µM | HOP-62 59.2 µM | K562 34.7 µM | COLO 205 18.2 µM | CAKI-1 87.3 µM | Hs-578T > 100 µM | SN12C 35.5 µM | OVCAR-8 39.5 µM
88.5 µM: HCT-15

CC1(C)C2CCC1(CC(=O)O)C(Cl)C2 (centres undefined)
> 100 µM: HCT-15
inactive: HT-29 > 100 µM | UACC-62 > 100 µM | SK-MEL-5 > 100 µM | PC-3 > 100 µM | UACC-257 > 100 µM | BT-549 > 100 µM | NCI-H226 > 100 µM | NCI-H23 > 100 µM | OVCAR-5 > 100 µM | SK-MEL-2 > 100 µM | HOP-62 > 100 µM | K562 > 100 µM | COLO 205 > 100 µM | Malme-3M > 100 µM | CAKI-1 > 100 µM | Hs-578T > 100 µM | SN12C > 100 µM | OVCAR-8 > 100 µM

Cc1c(C(=O)OCc2ccccc2)[n+]([O-])c2cc(F)c(F)cc2[n+]1[O-]
active: SK-MEL-5 0.698 µM | K562 0.264 µM | Hs-578T 0.306 µM
0.583 µM: HCT-15
inactive: HT-29 2.01 µM | UACC-62 2.11 µM | PC-3 2.52 µM | UACC-257 2.19 µM | BT-549 1.83 µM | NCI-H226 2.7 µM | NCI-H23 2.37 µM | OVCAR-5 3.72 µM | SK-MEL-2 1.67 µM | HOP-62 4.67 µM | COLO 205 3.61 µM | Malme-3M 1.99 µM | CAKI-1 2.15 µM | SN12C 1.94 µM | OVCAR-8 2.07 µM

C[n+]1c(-c2ccc(/C=N\N3CCN(/N=C/c4ccc(-c5cn6ccsc6[n+]5C)cc4)CC3)cc2)cn2ccsc21
inactive: HT-29 40.8 µM | UACC-62 22.1 µM | SK-MEL-5 22.8 µM | PC-3 > 100 µM | UACC-257 19.5 µM | BT-549 17.1 µM | NCI-H226 45.8 µM | NCI-H23 30.1 µM | OVCAR-5 > 100 µM | MDA-N 25.7 µM | SK-MEL-2 31.8 µM | K562 11.8 µM | COLO 205 16.8 µM | CAKI-1 34 µM | Hs-578T 19.2 µM | SN12C 35.2 µM | OVCAR-8 41.7 µM
34.5 µM: HCT-15

Cc1nc2ccccc2c(=O)n1NC(=O)c1ccccc1O
> 100 µM: HCT-15
inactive: HT-29 > 100 µM | UACC-62 > 100 µM | SK-MEL-5 > 100 µM | PC-3 > 100 µM | UACC-257 > 100 µM | BT-549 > 100 µM | NCI-H226 > 100 µM | NCI-H23 > 100 µM | OVCAR-5 > 100 µM | MDA-N > 100 µM | HOP-62 > 100 µM | K562 > 100 µM | COLO 205 > 100 µM | Hs-578T > 100 µM | SN12C > 100 µM | OVCAR-8 > 100 µM

COC(=O)c1ccccc1Nc1nc(-c2cccs2)nc2cc(OC)c(OC)cc12
inactive: HT-29 > 100 µM | UACC-62 52.6 µM | SK-MEL-5 > 100 µM | PC-3 52.2 µM | UACC-257 70.8 µM | BT-549 > 100 µM | NCI-H226 23.4 µM | NCI-H23 17.4 µM | OVCAR-5 36.2 µM | SK-MEL-2 64.7 µM | HOP-62 18.3 µM | K562 > 100 µM | COLO 205 45.4 µM | Malme-3M 61 µM | CAKI-1 39.4 µM | Hs-578T 30.3 µM | SN12C 48.5 µM | OVCAR-8 15.2 µM
90.2 µM: HCT-15

CCOC(=O)Nc1ccc2c(c1)N(C(=O)CCN(CC)CC)c1ccccc1S2 [ETHACIZINE]
30.4 µM: HCT-15
inactive: HT-29 17.3 µM | UACC-62 21.5 µM | SK-MEL-5 19.2 µM | PC-3 31.4 µM | UACC-257 16.3 µM | BT-549 28.1 µM | NCI-H226 51.2 µM | NCI-H23 31.8 µM | OVCAR-5 57.1 µM | SK-MEL-2 22 µM | HOP-62 33.9 µM | K562 25.8 µM | COLO 205 20.5 µM | Malme-3M 18.7 µM | CAKI-1 36.4 µM | Hs-578T 50.4 µM | SN12C 28.6 µM | OVCAR-8 25 µM

COC(=O)C(CCCCN)NC(C)=O.Cc1ccc(C(=O)Nc2ccc(S(=O)(=O)O)c3cc(S(=O)(=O)O)cc(S(=O)(=O)O)c23)cc1NC(=O)c1cccc(NC(=O)Nc2cccc(C(=O)Nc3cc(C(=O)Nc4ccc(S(=O)(=O)O)c5cc(S(=O)(=O)O)cc(S(=O)(=O)O)c45)ccc3C)c2)c1
23.9 µM: HCT-15
inactive: HT-29 > 50 µM | UACC-62 > 50 µM | SK-MEL-5 > 50 µM | PC-3 > 50 µM | UACC-257 > 50 µM | BT-549 > 50 µM | NCI-H226 > 50 µM | NCI-H23 > 50 µM | OVCAR-5 > 50 µM | MDA-N > 50 µM | SK-MEL-2 > 50 µM | K562 > 50 µM | COLO 205 > 50 µM | CAKI-1 > 50 µM | Hs-578T > 50 µM | SN12C > 50 µM | OVCAR-8 > 50 µM

— ChEMBL document CHEMBL1201862, “PubChem BioAssay data set” (2004)
